This passage reports ΔTm results from ChEMBL document CHEMBL5308504, “Tm Shift (DSF) assay results for EUbOPEN Chemogenomics Library” (2023).

“And” between values parts separate entries of the source, which are not always exact repeats. Identical values can stand only once. Numbered stars: 1 amine (or outer) side, 2 acyl side, 3 side chain; on linkers, the order of the positions; unused ones are H or OH. Bridge positions count the residues as written; N and C are the ends. Square brackets hold non-standard residues; d marks the D form. Peptide text beside a SMILES is read from it. I, II: the chains in the order shown. Hexamethylenediamine = C(CCCN[*:2])CCN[*:1]; Dip = N[C@H](C(=O)O)C(c1ccccc1)c1ccccc1; Chg = N[C@H](C(=O)O)C1CCCCC1; NMeA = CN[C@@H](C)C(=O)O

The term ΔTm denotes the shift of the melting midpoint relative to a reference.

Assay [1] concerns the target T1, Peregrin (Homo sapiens) (UniProt P55201).
T1 sequence (whole entry): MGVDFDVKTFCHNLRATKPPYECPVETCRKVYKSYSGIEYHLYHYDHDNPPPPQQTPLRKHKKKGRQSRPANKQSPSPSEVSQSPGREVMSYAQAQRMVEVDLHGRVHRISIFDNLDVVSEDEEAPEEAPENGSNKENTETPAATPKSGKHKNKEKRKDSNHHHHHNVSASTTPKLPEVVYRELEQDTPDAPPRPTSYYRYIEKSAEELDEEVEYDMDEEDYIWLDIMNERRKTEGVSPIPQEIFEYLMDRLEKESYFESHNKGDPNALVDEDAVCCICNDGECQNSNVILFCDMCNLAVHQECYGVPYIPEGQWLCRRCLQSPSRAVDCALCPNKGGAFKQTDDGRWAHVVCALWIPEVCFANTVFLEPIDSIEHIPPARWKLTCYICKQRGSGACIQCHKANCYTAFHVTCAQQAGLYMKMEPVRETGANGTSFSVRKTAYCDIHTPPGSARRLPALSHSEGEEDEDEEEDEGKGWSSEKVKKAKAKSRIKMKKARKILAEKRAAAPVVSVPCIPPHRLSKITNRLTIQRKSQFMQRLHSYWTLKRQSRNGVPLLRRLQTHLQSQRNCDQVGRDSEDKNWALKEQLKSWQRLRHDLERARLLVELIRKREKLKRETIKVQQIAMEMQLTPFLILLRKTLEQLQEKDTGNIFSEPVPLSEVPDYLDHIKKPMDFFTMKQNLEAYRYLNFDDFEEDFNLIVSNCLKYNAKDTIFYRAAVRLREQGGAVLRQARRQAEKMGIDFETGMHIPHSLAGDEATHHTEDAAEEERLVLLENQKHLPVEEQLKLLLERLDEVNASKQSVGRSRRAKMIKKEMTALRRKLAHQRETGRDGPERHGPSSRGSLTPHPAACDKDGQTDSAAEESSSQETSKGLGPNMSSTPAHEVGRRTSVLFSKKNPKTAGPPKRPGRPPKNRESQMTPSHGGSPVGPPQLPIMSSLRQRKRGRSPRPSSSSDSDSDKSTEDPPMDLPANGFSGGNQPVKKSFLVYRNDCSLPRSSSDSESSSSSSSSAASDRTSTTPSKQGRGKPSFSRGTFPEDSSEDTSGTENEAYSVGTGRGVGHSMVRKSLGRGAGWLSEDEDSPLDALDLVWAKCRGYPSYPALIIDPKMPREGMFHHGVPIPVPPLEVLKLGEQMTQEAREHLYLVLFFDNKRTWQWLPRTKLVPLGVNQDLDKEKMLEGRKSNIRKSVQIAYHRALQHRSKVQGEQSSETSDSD
Particulars: Compound concentration 20.0 uM, Protein concentration 2.0 uM, Result type QC Liability.

The target in assay [2] is Fibroblast growth factor receptor 3 (Homo sapiens) (UniProt P22607). As to conditions: Compound concentration 20.0 uM, Protein concentration 2.0 uM, Result type QC Liability.
Chain of Fibroblast growth factor receptor 3 (Homo sapiens) (P22607 23-806 limits assumed): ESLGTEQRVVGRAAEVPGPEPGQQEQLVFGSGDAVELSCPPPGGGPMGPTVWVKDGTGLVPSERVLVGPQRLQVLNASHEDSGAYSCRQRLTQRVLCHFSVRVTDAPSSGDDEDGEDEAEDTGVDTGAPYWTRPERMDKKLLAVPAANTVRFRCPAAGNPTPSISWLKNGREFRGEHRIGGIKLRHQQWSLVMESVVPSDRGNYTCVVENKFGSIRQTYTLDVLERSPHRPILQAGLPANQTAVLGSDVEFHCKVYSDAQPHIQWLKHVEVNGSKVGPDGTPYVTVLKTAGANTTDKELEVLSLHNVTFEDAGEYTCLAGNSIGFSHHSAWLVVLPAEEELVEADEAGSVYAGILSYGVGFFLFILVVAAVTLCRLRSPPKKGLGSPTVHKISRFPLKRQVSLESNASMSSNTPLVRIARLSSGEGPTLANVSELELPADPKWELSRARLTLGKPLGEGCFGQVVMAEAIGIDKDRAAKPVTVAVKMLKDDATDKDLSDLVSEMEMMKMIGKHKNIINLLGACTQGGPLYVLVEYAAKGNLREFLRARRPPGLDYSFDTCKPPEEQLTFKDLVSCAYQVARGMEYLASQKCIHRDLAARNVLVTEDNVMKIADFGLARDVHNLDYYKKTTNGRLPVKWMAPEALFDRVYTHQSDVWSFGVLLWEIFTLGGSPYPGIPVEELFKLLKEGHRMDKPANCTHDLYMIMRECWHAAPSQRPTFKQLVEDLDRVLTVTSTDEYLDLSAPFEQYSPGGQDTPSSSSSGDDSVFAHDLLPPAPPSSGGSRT
Description: Thermal Shift Assay. Domain: start/stop: P449-E759

With `COc1cc(C(=O)O)ncc1C#Cc1ccccc1NS(=O)(=O)c1cccc2c(N(C)C)ccnc12`, the ΔTm in assay [1] is -0.45 °C; in assay [2] it was 0.5 °C.

For the molecule `O=C(Cc1ccccc1)Nc1nnc(N2CC[C@@H]3[C@H]2CN3c2cccnn2)s1`, the thermal shift (ΔTm) is -0.69 °C in assay [1] and 0.51 °C in assay [2].

For the molecule `CC(C=CC1=C(C)CCCC1(C)C)=CC=CC(C)=CC(=O)O`, the ΔTm in assay [1] was -2.28 °C; in assay [2], 0.68 °C.

As for `CN1CCCN(C(=O)c2cccc(-c3ccc(/C=C4/C(=O)Nc5ccc(Cl)cc54)o3)c2)CC1`, the ΔTm was -2.53 °C in assay [1] and 2.18 °C in assay [2].

With `CC(C)Oc1ccc(Cc2ccc(NC3=NCCN3)cc2)cc1`, the ΔTm in assay [1] was -3.24 °C; in assay [2], 0.39 °C.

For `COc1cc(-c2cncc(-c3ccc(N4CCN(C(C)C)CC4)cc3)c2C)cc(F)c1C(=O)N1CCCC1`, the ΔTm in assay [1] was -1.67 °C; in assay [2], 0.64 °C.

Consider `C[C@@H]1CC[C@@]2(OC1)O[C@H]1[C@@H](O)[C@H]3[C@@H]4CC[C@H]5C[C@@H](O[C@@H]6O[C@H](CO)[C@H](O[C@@H]7O[C@H](CO)C(O)[C@H](O[C@@H]8OC[C@@H](O)[C@H](O)[C@H]8O)[C@H]7O[C@@H]7O[C@H](CO)[C@H](O)[C@H](O[C@@H]8O[C@H](CO)[C@@H](O)[C@H](O)[C@H]8O)[C@H]7O)[C@H](O)[C@H]6O)[C@H](O)C[C@]5(C)[C@H]4CC[C@]3(C)[C@H]1[C@@H]2C` (some centres not stated), for which the ΔTm in assay [1] is -1.35 °C; in assay [2], 0.72 °C.

With `c1ccc(C(OC2CCN(CCCc3nnn[nH]3)CC2)c2ccccc2)cc1`, the ΔTm in assay [1] is -2.95 °C; in assay [2], 0.52 °C.

For the molecule `CCC(F)(F)c1cc(N2CCC(S(C)(=O)=O)CC2)nc2sc(C(N)=O)c(N)c12`, the thermal shift (ΔTm) was -2.52 °C and -1.37 °C and -0.65 °C in assay [1]; 0.83 °C and 0.75 °C and 1.17 °C in assay [2].

For `O=C(O)c1ccnc(N2CC(O)(c3ccc(OCc4c(-c5c(Cl)cccc5Cl)noc4C4CC4)cc3Cl)C2)c1`, the shift in melting temperature (ΔTm) in assay [1] is -1.75 °C; in assay [2] it was 0.03 °C.

Consider `O=C1CN(c2ccccc2F)C(NCCN2CCOCC2)=C1c1nc2cc(Br)ccc2c(=O)[nH]1`, for which the results for the ΔTm in assay [1] and in assay [2] were -2.29 °C and 0.53 °C, respectively.

For the molecule `CN(C(=O)c1ccccc1)c1ccc2c(c1)[nH]/c(=N\C(=O)c1ccc(Br)s1)n2CCC(N)=O`, the ΔTm is -2.4 °C in assay [1] and 4.52 °C in assay [2].

For the molecule `COc1ccc(-c2csc(NC(=O)[C@H]3CCCCN3S(=O)(=O)c3ccc(C)cc3)n2)cc1`, the figures for the ΔTm in assay [1] and in assay [2] were -0.84 °C and 0.16 °C, respectively.

As to `O=C(Nc1cccc(C(F)(F)F)c1)c1cccc(-n2cc(-c3ccco3)nn2)c1`, the ΔTm in assay [1] is -8.11 °C; in assay [2] it was -0.75 °C.

With `C[C@@H](CO)CCC[C@@H](C)[C@H]1CC[C@H]2[C@@H]3CC=C4C[C@@H](O)CC[C@]4(C)[C@H]3CC[C@]12C`, the ΔTm in assay [1] was -1.97 °C; in assay [2], 0.9 °C.

For `CCn1ccc(Nc2ncc3c(n2)-c2c(nn(C)c2-c2ccc(-c4cnn(C)c4)cc2Cl)CC3)n1`, the ΔTm in assay [1] is -0.93 °C; in assay [2], 2.93 °C.

In the case of `CCNC1=N[C@@H]2[C@@H](O)[C@H](O)[C@@H](CO)O[C@@H]2S1`, the ΔTm in assay [1] is 0.02 °C; in assay [2], 0.73 °C.

`Cc1cc([N+](=O)[O-])c(NS(=O)(=O)c2cccc(C(=O)O)c2)cc1-c1cccnc1`: the results for the ΔTm in assay [1] and in assay [2] were 0.37 °C and 0.67 °C, respectively.

`CCCS(=O)(=O)Nc1ccc(F)c(Nc2ncnc3cnc(-n4cnc(C)c4)nc23)c1F`: the values for the ΔTm in assay [1] and in assay [2] were 0.01 °C and 1.06 °C, respectively.

As for `Cc1cccc(CC(=O)N2CCc3c2ccc(-c2cn(C)c4ncnc(N)c24)c3F)n1`, the ΔTm in assay [1] was -2.12 °C; in assay [2], -0.88 °C.

In the case of `CCCn1cc(-c2cc(C3C(=O)N(CC)c4ccc(C(F)(F)F)cc4N(c4ccccc4)C3=O)cc(OC)c2O)cn1` (configuration not stated), the ΔTm is -1.21 °C in assay [1] and 0.46 °C in assay [2].

Consider `C=C(F)C(=O)N1CCN(c2nc(OC[C@@H]3CCCN3C)nc3c2CCN(c2cccc4cccc(Cl)c24)C3)C[C@@H]1CC#N`, for which the figures for the ΔTm in assay [1] and in assay [2] were -3.96 °C and 0.12 °C, respectively.

Consider `CCC(C)(C)CC[C@H](NC(=O)N1CCOCC1)C(=O)NC1(C#N)CCN(C)CC1`, for which the ΔTm in assay [1] was -3.19 °C; in assay [2] it was 0.71 °C.

With `CO[C@H](C)CN1CC[C@]2(C)c3cccc(O)c3C[C@H]1C2(C)C`, the ΔTm is -1.37 °C in assay [1] and 0.41 °C in assay [2].

For the molecule `CCOC(=O)CS(=O)(=O)c1ccc([C@@H](CO)NC(=O)c2cc3c(Cl)c(Cl)c(C)cc3n2C)cc1`, the ΔTm in assay [1] was -8.76 °C; in assay [2], 2.82 °C.

Turning to `COc1ccc(S(=O)(=O)N2CCOCC2)cc1Nc1ccc2c(n1)N(C1CCOCC1)[C@H](C)C(=O)N2C`, the values for the ΔTm in assay [1] and in assay [2] were 0.21 °C and 0.08 °C, respectively.

As for `Cc1cc(=O)oc2cc(NC(=O)[C@H](Cc3ccc(I)cc3)NC(=O)[C@H]3N[C@@H]4CC[C@H]3C4)ccc12`, the results for the thermal shift (ΔTm) in assay [1] and in assay [2] were -1.46 °C and 0.37 °C, respectively.

Regarding `C=C1/C(=C\C=C2/CCC[C@]3(C)[C@@H]([C@H](C)CCCC(C)(C)O)CC[C@@H]23)C[C@@H](O)C[C@@H]1O`, the values for the ΔTm in assay [1] and in assay [2] were -2.59 °C and 1.25 °C, respectively.

For the molecule `CSc1nc2c(c(=O)n(C)c(=O)n2C)n1C`, the ΔTm in assay [1] was -2.2 °C; in assay [2], 0.45 °C.

With `COc1ccc(F)c(F)c1C(=O)c1cnc(NC2CCN(S(C)(=O)=O)CC2)nc1N`, the ΔTm was -0.92 °C in assay [1] and 1.01 °C in assay [2].

Consider `Cn1nc(-c2ccc(C(N)=O)cc2)c2ccccc2c1=O`, for which the ΔTm is -1.74 °C in assay [1] and 1.06 °C in assay [2].

For the molecule `CN1CCN(c2ccc(-n3cc(-c4ccncc4OCC4CCNCC4)cn3)cc2)CC1`, the ΔTm in assay [1] is -0.97 °C; in assay [2], 1.33 °C.

As to `CN[C@@H](C)C(=O)N[C@H](C(=O)N1CCC[C@H]1C(=O)N[C@@H]1CCCc2ccccc21)C1CCCCC1`, the values for the ΔTm in assay [1] and in assay [2] were -1.87 °C and 0.75 °C, respectively.

Turning to `CN[C@@H](C)C(=O)N[C@H](C(=O)N1CCC[C@H]1C(=O)N[C@H](C(=O)NCCCCCCNC(=O)[C@@H](NC(=O)[C@@H]1CCCN1C(=O)[C@@H](NC(=O)[C@H](C)NC)C1CCCCC1)C(c1ccccc1)c1ccccc1)C(c1ccccc1)c1ccccc1)C1CCCCC1` (I: H-[NMeA][Chg]P[Dip] / II: H-[NMeA][Chg]P[Dip]; linker I:C-II:C via Hexamethylenediamine), the ΔTm in assay [1] was -2.83 °C; in assay [2], 0.66 °C.

Consider `O=C(Nc1snnc1C(=O)Nc1ccc(N2CCCC2)cc1)c1cncc(C(F)(F)F)c1`, for which the values for the ΔTm in assay [1] and in assay [2] were 0.2 °C and 0.45 °C, respectively.

`CCOC(=O)C1Cc2ccccc2CN1C(=O)c1ccc(SC)s1` (configuration not stated): the figures for the thermal shift (ΔTm) in assay [1] and in assay [2] were -1.13 °C and 0.41 °C, respectively.

On to `O=C(CCSCc1ccco1)NNC(=O)N1Cc2ccccc2Oc2ccc(Cl)cc21`, for which the ΔTm is -3.17 °C in assay [1] and 0.24 °C in assay [2].

Regarding `CNC(=O)c1c[nH]c2ccc(Nc3nccc(-c4ccccn4)n3)cc12`, the ΔTm is -0.15 °C in assay [1] and 0.22 °C in assay [2].

As to `COc1cnccc1Nc1nc(-c2nn(Cc3c(F)cc(OCCO)cc3F)c3ccccc23)ncc1OC`, the ΔTm is -6.89 °C in assay [1] and -7.58 °C in assay [2].

Take `CNC(=O)c1ccc2c(c1)NC(=O)/C2=C(\Nc1ccc(CN2CCCCC2)cc1)c1ccccc1`: the figures for the thermal shift (ΔTm) in assay [1] and in assay [2] were -0.66 °C and 3.97 °C, respectively.

Turning to `COP(=O)(CCC(N)C(=O)O)Oc1cccc(CC(=O)O)c1` (configuration not stated), the shift in melting temperature (ΔTm) is -1.49 °C in assay [1] and 0.51 °C in assay [2].

In the case of `CCCCc1c(-c2ccccc2)nc(N)nc1-c1ccc(OCc2ccccc2)c(F)c1F`, the ΔTm was -4.97 °C in assay [1] and -0.31 °C in assay [2].

Take `CNc1ncc2cc(-c3ccc(-c4ncccc4F)cc3Cl)c(=O)n(C[C@H]3OC[C@H](N)CO3)c2n1`: the ΔTm in assay [1] was -1.11 °C; in assay [2], 2.03 °C.

Consider `Cc1ncsc1-c1ccc(CNC(=O)[C@@H]2C[C@@H](O)CN2C(=O)[C@@H](NC(=O)CCCCNC(=O)c2ccc(-c3ccc(N4CCN(C)CC4)c(NC(=O)c4c[nH]c(=O)cc4C(F)(F)F)c3)cc2)C(C)(C)C)cc1`, for which the results for the ΔTm in assay [1] and in assay [2] were 1.18 °C and -2.23 °C, respectively.

For `C[C@@H]1Cc2c([nH]c3ccccc23)[C@@H](c2c(F)cc(/C=C/C(=O)O)cc2F)N1CC(C)(C)F`, the figures for the ΔTm in assay [1] and in assay [2] were -4.53 °C and 0.58 °C, respectively.

Turning to `COCCc1ccc(-c2c(C)nc3c(N4CCOCC4)ccnn23)cn1`, the ΔTm is -2.19 °C in assay [1] and 1.27 °C in assay [2].
